Reference: patent publication US20250120967A1, “TYROSINE KINASES INHIBITORS AND USES THEREOF” (GREAT NOVEL THERAPEUTICS BIOTECH & MEDICALS CORPORATION, priority 2023, published 2025)

Tests used:
Test in all cases: Tyrosine kinase inhibition assay
Assay type in all cases: biochemical
Conditions in all cases: single concentration 1.0 μM, read-out: percent inhibition
EPHB3 = target: T1, EPHB3 (Homo sapiens, UniProt P54753)
T1 sequence (P54753 34-998): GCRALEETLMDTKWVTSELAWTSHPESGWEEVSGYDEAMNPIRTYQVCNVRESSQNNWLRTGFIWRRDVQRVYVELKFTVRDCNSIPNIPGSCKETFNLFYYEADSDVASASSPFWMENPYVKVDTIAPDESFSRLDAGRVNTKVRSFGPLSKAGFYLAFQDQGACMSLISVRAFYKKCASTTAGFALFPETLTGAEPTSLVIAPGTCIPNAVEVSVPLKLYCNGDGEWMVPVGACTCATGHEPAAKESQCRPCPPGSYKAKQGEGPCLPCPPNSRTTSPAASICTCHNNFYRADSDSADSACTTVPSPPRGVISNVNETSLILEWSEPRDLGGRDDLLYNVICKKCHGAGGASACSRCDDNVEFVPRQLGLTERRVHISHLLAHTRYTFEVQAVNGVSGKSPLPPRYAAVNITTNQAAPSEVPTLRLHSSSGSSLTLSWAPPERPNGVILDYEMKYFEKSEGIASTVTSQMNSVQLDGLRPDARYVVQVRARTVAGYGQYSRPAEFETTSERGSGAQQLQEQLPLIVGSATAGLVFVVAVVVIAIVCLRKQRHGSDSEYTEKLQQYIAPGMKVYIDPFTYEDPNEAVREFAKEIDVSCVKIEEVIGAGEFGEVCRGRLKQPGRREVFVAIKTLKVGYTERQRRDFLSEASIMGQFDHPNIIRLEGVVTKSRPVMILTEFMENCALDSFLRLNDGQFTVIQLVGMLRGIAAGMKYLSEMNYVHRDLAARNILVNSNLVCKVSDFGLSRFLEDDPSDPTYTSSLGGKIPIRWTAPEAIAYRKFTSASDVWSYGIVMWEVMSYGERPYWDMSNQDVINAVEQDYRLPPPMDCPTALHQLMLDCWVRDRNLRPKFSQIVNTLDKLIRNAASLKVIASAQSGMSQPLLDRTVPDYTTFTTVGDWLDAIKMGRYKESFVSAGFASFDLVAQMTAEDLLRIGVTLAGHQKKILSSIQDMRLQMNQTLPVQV
Summary of the method: (§1)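 Peptide/kinase mixtures and ATP (apparent Km) are combined in 50 mM HEPES pH 7.5 kinase buffer with 10 mM MgCl2, 1 mM EGTA and 0.01% BRIJ-35, compound at 1.0 μM in 1% DMSO. Development reagent is then added and percent inhibition calculated.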

FGFR1 = FGFR1 (Homo sapiens, UniProt P11362)
Sequence of FGFR1 (P11362 22-822): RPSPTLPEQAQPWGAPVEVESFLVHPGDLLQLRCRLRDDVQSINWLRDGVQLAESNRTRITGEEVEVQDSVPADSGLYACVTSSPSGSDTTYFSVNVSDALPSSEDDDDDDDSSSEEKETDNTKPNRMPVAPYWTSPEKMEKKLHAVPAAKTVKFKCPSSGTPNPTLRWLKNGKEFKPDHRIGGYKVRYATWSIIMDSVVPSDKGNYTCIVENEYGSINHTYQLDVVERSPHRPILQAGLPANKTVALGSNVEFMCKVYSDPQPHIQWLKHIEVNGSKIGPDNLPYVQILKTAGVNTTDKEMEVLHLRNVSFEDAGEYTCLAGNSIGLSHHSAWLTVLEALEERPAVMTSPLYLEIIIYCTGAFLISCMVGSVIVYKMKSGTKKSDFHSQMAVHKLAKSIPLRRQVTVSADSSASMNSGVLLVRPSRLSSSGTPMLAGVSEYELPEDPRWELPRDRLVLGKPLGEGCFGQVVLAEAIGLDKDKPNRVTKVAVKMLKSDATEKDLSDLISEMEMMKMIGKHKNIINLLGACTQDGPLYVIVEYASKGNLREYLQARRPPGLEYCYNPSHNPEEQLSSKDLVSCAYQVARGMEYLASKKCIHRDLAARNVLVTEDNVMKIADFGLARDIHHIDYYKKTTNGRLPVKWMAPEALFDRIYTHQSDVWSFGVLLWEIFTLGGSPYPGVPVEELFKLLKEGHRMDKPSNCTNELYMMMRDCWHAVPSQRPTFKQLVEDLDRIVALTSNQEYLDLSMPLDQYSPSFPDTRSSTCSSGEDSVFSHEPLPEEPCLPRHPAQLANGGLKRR
Summary of the method: as §1

ERBB2 (HER2) = ERBB2 (HER2) (Homo sapiens, UniProt P04626)
Summary of the method: as §1

NTRK3 (TRKC) = NTRK3 (TRKC) (Homo sapiens, UniProt Q16288)
Sequence of NTRK3 (TRKC) (Q16288 32-839): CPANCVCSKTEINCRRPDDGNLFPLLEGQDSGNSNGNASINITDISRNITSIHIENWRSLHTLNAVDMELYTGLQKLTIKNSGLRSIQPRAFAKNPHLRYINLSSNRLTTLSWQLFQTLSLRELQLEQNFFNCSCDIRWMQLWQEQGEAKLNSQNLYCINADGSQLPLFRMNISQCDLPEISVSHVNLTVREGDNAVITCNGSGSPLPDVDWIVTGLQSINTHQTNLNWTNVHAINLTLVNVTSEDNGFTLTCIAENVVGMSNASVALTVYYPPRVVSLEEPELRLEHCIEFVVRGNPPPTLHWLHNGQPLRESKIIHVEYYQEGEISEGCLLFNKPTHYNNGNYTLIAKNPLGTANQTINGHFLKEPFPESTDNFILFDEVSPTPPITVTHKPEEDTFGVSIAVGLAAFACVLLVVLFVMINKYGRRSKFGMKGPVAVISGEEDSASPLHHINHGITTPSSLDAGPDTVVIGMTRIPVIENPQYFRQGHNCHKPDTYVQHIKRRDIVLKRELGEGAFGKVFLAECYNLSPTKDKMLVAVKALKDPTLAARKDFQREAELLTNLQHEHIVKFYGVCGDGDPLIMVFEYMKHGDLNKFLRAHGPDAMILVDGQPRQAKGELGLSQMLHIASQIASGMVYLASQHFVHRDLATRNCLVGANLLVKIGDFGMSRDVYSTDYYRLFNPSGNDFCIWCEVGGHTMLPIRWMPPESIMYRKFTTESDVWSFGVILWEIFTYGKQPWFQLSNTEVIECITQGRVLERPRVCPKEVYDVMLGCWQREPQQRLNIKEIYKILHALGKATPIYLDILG
Summary of the method: as §1

PTK2B (FAK2) = PTK2B (FAK2) (Homo sapiens, UniProt Q14289)
Sequence of PTK2B (FAK2) (Q14289 whole entry): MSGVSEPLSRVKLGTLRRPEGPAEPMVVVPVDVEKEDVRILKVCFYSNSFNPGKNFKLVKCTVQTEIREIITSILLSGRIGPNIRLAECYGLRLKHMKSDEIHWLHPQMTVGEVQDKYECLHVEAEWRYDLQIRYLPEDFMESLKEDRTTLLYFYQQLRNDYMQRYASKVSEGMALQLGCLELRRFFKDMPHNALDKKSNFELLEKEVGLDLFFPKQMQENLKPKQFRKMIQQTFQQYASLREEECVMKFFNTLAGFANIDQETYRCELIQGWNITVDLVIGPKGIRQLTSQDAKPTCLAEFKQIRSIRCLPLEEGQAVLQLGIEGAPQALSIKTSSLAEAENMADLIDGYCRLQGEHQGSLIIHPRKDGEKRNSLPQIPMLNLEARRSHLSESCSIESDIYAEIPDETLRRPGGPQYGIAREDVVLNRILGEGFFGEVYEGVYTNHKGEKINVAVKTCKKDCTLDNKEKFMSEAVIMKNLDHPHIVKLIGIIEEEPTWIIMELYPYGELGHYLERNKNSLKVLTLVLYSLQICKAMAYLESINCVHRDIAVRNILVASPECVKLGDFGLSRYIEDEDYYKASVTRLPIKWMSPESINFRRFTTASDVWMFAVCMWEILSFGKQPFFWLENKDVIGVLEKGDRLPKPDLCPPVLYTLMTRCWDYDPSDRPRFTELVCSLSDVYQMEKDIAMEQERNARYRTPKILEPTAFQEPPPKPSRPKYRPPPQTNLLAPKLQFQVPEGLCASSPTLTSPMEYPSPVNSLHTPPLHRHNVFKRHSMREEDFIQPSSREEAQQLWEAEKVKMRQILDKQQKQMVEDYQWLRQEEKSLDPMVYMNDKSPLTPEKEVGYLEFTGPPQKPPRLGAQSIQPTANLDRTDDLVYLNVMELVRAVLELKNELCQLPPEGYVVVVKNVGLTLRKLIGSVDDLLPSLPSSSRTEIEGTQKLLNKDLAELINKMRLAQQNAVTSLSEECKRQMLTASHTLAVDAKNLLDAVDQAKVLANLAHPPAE
Summary of the method: as §1

PDGFRB (PDGFR beta) = PDGFRB (PDGFR beta) (Homo sapiens, UniProt P09619)
Sequence of PDGFRB (PDGFR beta) (P09619 33-1106): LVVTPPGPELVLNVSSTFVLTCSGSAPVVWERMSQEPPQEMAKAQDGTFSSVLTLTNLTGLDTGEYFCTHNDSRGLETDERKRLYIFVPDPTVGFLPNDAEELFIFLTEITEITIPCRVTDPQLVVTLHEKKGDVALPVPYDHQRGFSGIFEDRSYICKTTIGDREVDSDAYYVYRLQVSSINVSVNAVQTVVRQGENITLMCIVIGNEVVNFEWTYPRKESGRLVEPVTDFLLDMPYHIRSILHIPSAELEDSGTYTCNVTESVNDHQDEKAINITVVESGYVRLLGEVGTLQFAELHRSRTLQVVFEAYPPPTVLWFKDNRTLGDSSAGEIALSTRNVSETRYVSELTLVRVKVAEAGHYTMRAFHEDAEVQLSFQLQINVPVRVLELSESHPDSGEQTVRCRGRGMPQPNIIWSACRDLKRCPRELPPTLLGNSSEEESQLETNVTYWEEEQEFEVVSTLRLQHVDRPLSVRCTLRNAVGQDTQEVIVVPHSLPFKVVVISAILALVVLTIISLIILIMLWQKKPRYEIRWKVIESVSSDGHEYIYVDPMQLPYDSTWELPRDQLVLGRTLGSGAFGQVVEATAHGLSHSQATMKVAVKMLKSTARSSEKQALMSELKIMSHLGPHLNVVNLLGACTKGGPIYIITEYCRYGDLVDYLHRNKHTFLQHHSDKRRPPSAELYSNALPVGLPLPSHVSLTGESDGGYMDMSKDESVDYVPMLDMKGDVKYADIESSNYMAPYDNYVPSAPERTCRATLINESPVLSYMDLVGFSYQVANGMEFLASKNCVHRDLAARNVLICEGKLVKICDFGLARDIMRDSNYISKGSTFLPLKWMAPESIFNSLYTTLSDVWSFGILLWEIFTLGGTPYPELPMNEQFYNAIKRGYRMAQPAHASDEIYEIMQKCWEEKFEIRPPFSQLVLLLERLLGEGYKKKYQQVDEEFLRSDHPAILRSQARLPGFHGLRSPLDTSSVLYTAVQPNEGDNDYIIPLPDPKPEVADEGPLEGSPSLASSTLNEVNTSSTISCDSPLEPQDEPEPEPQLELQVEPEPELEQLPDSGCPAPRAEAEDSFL
Summary of the method: as §1

AURKB (Aurora B) = AURKB (Aurora B) (Homo sapiens, UniProt Q96GD4)
Sequence of AURKB (Aurora B) (Q96GD4 whole entry): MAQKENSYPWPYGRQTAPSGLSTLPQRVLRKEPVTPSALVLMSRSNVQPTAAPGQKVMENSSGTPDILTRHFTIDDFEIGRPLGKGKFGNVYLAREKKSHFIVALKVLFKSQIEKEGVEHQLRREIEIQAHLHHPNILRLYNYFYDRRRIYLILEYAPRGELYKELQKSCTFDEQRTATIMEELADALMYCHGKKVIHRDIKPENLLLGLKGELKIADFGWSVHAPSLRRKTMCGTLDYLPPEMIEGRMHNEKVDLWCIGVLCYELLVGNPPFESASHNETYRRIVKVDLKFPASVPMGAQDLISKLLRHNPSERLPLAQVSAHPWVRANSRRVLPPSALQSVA
Summary of the method: as §1

EPHA3 = target: T2, EPHA3 (Homo sapiens, UniProt P29320)
T2 sequence (P29320 21-983): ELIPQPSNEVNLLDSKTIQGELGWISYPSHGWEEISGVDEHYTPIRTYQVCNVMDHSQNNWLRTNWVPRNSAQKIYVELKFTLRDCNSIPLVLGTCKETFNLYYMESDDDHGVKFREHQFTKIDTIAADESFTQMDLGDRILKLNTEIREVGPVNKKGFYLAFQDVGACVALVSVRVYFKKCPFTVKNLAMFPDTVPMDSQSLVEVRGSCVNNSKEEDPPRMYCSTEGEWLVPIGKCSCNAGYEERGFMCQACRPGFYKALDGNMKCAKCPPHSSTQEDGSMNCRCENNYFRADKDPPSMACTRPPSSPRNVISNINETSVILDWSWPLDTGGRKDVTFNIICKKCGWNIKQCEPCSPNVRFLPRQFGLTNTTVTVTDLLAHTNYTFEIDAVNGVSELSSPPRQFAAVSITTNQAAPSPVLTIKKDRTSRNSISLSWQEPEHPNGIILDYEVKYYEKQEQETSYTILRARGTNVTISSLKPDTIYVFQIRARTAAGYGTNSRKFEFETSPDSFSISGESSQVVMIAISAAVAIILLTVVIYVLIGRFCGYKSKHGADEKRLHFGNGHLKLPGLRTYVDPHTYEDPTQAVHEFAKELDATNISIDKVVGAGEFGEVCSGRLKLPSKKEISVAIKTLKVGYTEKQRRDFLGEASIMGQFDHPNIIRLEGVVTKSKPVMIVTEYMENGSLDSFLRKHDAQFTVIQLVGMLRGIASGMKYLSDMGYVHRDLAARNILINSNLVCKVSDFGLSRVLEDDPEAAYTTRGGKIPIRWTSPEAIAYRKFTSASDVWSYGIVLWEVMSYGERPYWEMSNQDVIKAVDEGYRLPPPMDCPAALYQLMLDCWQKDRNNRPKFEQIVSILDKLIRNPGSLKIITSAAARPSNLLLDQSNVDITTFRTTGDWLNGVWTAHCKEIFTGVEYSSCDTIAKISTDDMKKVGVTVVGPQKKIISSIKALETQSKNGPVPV
Summary of the method: as §1

Structure (SMILES)	inhibition at 1 µM (EPHB3) [%]	inhibition at 1 µM (FGFR1) [%]	inhibition at 1 µM (ERBB2 (HER2)) [%]	inhibition at 1 µM (NTRK3 (TRKC)) [%]	inhibition at 1 µM (PTK2B (FAK2)) [%]	inhibition at 1 µM (PDGFRB (PDGFR beta)) [%]	inhibition at 1 µM (AURKB (Aurora B)) [%]	inhibition at 1 µM (EPHA3) [%]
COc1cc2nccc(Oc3ccc(NC(=O)C4(C(=O)Nc5ccc(F)cc5)CC4)cc3)c2cc1OC [Cabozantinib, reference compound]	54	12	17	97	71	73	84	100
COc1cc2nccc(Oc3ccc(NC(=O)C4(NC(=O)c5ccc(F)cc5)CC4)cc3F)c2cc1OC [Cbo-02, N-(1-((4-((6,7-diMethoxyquinolin-4-yl)oxy)-3-fluorophenyl)carbamoyl)cyclopropyl)-4-fluorobenzamide]	4	3	50	58	9	34	99	-3
COc1cc2nccc(Oc3ccc(NC(=O)C4(NC(=O)c5ccc(F)cc5)CC4)cc3F)c2cc1Oc1ccc(N)cc1F [Cbo-10]	6	1	90	89	56	52	83	14
COc1cc2nccc(Oc3ccc(NC(=O)C4(NC(=O)c5ccc(F)cc5)CC4)cc3F)c2cc1Oc1c(F)cc(N)cc1F [Cbo-14]	6	5	90	98	54	56	84	24
COc1cc2nccc(Oc3ccc(NC(=O)C4(C(=O)Nc5ccc(F)cc5)CC4)cc3F)c2cc1Oc1ccc(N)cc1F [Cbo-23]	55	27	54	98	100	56	67	97
